For data set [1] the following is noted: 1:100,000 sterile aqueous solution; cited from earlier work.
The conditions of data set [2]: 1:1000 to 1:10,000 solutions; cited from earlier work.
For data set [3] the following is noted: 1:1000 or 1:10,000 epinephrine in sterile aqueous solution; cited from earlier work.
Data set [4] in a line: Treatment of a patient with asthma (Examples 1-3). The protocol: A patient presents with asthma complicated by degenerative heart disease and has variously used 0.25% or 1% isoproterenol aerosols, 0.10-0.20 mg epinephrine-bitartrate inhalers, and 90 μg albuterol every day at 4-6 hour intervals. […] The subject is administered an aerosol composition comprising 0.075% isoproterenol and 1.0% ascorbic acid.
A patient presents with asthma and has previously used 90 μg albuterol every day at 4-6 hour intervals. […] The subject is administered composition comprising 50 μg albuterol and […] morphine sulfate.
A patient presents with asthma and has previously used a 0.20 mg/dose epinephrine bitartrate inhaler every day at 6 hour intervals. The subject is administered a composition delivering a unit dose comprising 0.03 mg epinephrine bitatrate and 0.2 mg EDTA from a conventional inhaler.

The conditions of data set [5]: daily injections of 1 mg/kg for seven days; cited from earlier work.

Structures can show the parent of a compound that is named as a salt.

For `CNC[C@H](O)c1ccc(O)c(O)c1` [epinephrine hydrochloride], the “duration of beneficial effect of conventional treatment” value in data set [1] is “about 15 minutes”.

As for `CNC[C@H](O)c1ccc(O)c(O)c1` [epinephrine], the “duration of action of conventional treatment” value in data set [2] is reported as “only a few minutes”. Also, in data set [3], the “side effects of conventional formulations” value was “fear, anxiety, restlessness, and sleeplessness, dizziness and palpitations”.

For `CC(C)(C)NCC(O)c1ccc(O)c(CO)c1` (centres unmarked) [albuterol], the adverse side effects entry in data set [4] (human, in vivo) was “unacceptable side effects”. Further, the “control of asthma / symptom relief” value in data set [4] (patient with asthma) was “not well controlled”.

In the case of `CC(C)NCC(O)c1ccc(O)c(O)c1` (centres unmarked) [isoproterenol], in data set [4] (patient with asthma), the adverse side effects entry is given as “unacceptable side effects”.

On to `C[C@H](N)Cc1ccccc1` [D-amphetamine], for which the “side effects of the typical treatment” value in data set [5] is recorded as “Side effects often result”.

As to `CNC[C@H](O)c1ccc(O)c(O)c1` [epinephrine-bitartrate], in data set [4] (human, in vivo), the adverse side effects result is “unacceptable side effects”.

(Values after patent publication US20030216413A1, “Catecholamine pharmaceutical compositions and methods” (priority 2000, published 2003).)
